According to paper PMC8550792, “Evolution of kinase polypharmacology across HSP90 drug discovery” (Cell Chemical Biology, 2021):

How the values were obtained:
Assay in all cases: biochemical
Assay type in all cases: biochemical
[1] = molecular target: T1, 382 unique human kinases (Homo sapiens, UniProt P16591); settings: kinase FER, compound 10 uM; for remaining activity at 10 µM: read-out: % Enzyme Activity (relative to DMSO controls)
T1 construct: purchased Reaction Biology (HotSpot contract assay)
T1 sequence (P16591 whole entry): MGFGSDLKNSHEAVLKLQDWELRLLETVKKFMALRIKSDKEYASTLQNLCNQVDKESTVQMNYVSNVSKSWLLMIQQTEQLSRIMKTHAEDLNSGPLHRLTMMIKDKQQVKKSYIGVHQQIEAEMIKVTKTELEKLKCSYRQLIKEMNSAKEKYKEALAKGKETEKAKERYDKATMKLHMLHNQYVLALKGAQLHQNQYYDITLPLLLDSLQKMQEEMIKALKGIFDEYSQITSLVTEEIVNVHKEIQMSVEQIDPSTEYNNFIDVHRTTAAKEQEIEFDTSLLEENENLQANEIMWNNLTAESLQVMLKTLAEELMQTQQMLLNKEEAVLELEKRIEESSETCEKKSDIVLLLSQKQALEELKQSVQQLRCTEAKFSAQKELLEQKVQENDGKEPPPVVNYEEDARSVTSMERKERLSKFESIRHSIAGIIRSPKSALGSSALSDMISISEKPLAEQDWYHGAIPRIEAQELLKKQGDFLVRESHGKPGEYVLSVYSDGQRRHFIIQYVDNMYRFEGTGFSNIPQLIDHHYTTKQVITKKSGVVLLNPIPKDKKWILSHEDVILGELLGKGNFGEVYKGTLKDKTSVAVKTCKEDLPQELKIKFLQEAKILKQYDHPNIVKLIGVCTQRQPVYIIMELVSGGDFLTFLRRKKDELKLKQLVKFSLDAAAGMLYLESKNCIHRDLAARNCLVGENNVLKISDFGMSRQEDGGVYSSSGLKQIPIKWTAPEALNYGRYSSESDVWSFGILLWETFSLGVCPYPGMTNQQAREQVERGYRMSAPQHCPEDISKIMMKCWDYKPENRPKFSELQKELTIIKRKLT

[2] = molecular target: T2, 382 unique human kinases (Homo sapiens, UniProt P21709); settings: EPHA1, [ATP] 20 µM, compound 10 uM; for remaining activity at 10 µM: read-out: % Enzyme Activity (relative to DMSO controls)
T2 construct: purchased Reaction Biology (HotSpot contract assay)
T2 sequence (P21709 26-976): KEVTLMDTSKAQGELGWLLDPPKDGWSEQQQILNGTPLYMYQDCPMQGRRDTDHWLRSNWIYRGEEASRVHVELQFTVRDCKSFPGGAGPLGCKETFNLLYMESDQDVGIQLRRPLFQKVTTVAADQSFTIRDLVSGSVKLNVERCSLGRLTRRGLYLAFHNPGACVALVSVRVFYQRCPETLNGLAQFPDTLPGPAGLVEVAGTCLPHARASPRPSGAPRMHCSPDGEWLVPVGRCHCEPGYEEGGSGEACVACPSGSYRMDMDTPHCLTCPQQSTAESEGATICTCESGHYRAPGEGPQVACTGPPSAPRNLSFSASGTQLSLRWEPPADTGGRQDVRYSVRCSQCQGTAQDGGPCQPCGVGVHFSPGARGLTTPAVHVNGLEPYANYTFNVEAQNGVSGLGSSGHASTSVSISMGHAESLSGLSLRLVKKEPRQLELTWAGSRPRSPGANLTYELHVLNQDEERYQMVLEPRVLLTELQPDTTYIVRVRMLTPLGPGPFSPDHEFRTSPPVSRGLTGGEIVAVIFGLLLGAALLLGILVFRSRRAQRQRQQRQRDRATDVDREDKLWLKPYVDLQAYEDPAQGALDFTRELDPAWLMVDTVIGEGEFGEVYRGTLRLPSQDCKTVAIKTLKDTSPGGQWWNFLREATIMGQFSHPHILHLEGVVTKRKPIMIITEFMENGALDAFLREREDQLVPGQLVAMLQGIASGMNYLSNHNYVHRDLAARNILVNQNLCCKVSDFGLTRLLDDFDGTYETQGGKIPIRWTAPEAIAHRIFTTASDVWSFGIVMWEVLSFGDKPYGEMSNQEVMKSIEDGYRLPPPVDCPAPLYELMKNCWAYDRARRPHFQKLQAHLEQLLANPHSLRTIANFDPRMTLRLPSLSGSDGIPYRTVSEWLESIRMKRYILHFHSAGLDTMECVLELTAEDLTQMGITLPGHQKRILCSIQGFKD

[3] = molecular target: T3, 382 unique human kinases (Homo sapiens, UniProt P35626); settings: GRK3, 10 uM; for remaining activity at 10 µM: read-out: % Enzyme Activity (relative to DMSO controls)
T3 construct: purchased Reaction Biology (HotSpot contract assay)
T3 sequence (P35626 1-688): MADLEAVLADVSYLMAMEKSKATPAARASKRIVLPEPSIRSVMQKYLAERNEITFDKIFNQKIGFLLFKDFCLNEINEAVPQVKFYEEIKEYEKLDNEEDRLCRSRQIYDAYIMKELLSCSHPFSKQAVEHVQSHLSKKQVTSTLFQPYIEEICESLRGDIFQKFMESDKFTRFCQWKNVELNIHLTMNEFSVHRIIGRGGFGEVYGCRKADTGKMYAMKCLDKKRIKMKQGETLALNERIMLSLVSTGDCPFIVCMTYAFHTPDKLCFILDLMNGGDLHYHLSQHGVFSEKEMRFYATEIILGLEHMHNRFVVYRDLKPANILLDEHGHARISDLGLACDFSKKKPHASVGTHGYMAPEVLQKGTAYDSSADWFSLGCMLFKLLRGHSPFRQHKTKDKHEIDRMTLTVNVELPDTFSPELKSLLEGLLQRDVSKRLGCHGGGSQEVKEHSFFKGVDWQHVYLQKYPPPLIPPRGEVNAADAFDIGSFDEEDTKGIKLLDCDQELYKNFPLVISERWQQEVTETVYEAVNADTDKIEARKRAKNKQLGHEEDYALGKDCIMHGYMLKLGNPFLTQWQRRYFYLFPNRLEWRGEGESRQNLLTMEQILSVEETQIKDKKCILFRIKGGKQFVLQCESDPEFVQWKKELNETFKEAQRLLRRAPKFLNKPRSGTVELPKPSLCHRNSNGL

[4] = molecular target: T4, 382 unique human kinases (Homo sapiens, UniProt O60285); settings: ARK5/NUAK1, 10 uM; for remaining activity at 10 µM: read-out: % Enzyme Activity (relative to DMSO controls)
T4 construct: purchased Reaction Biology (HotSpot contract assay)
T4 sequence (O60285 1-661): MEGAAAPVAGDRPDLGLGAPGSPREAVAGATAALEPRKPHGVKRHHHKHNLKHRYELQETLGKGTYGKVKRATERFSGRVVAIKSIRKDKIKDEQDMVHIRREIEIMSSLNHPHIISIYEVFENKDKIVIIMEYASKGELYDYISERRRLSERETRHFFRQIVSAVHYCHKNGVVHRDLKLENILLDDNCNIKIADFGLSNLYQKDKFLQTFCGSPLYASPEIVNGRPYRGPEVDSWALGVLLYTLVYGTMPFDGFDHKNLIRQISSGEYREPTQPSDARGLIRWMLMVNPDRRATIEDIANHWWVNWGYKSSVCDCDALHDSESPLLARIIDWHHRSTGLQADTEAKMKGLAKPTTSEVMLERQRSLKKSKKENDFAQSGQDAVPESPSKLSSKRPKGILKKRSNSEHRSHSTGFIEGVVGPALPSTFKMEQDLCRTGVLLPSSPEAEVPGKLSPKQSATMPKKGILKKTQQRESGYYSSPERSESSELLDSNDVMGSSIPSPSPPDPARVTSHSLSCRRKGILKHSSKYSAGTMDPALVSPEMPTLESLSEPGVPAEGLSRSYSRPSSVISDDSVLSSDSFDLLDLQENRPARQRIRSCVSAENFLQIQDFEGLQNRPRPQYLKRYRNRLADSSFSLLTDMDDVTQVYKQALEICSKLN

SMILES	remaining activity at 10 µM [1] [%]	% Enzyme Activity (relative to DMSO controls) [2] [%]	remaining activity at 10 µM [2] [%]	% Enzyme Activity (relative to DMSO controls) [3] [%]	remaining activity at 10 µM [3] [%]	% Enzyme Activity (relative to DMSO controls) [4] [%]	remaining activity at 10 µM [4] [%]	% Enzyme Activity (relative to DMSO controls) [1] [%]
CC(C)c1cc(-c2n[nH]c(=O)n2-c2ccc3c(ccn3C)c2)c(O)cc1O [Ganetespib (STA9090)]	82.6							
CCNC(=O)c1noc(-c2cc(C(C)C)c(O)cc2O)c1-c1ccc(CN2CCOCC2)cc1 [Luminespib]		101.19	102	96.02	97.9	92.57	93.9	
CCNC(=O)c1noc(-c2cc(C(C)C)c(O)cc2O)c1-c1ccc(CN2CCOCC2)cc1 [Luminespib (AUY-922)]	102							101.55
CC(C)c1cc(-c2n[nH]c(=O)n2-c2ccc3c(ccn3C)c2)c(O)cc1O [Ganetespib]			60.7		109		97.3	
